Source: paper PMC6774960, “Design, synthesis and biological evaluation of a series of new resveratrol analogues as potential anti-cancer agents” (Royal Society Open Science, 2019)

What was measured:
Type in all cases: cell-based, human
HepG2 cells [1] = experiment: MTT anti-proliferation assay, HepG2; conditions: average of three determinations
Procedure: The 22 synthesized resveratrol compounds were evaluated for anti-proliferative activities against three human cancer cell lines, including HepG2, A549 and HeLa cells, using 3-[4,5-dimethylthiazol-2-yl]-2,5 diphenyl tetrazolium bromide (MTT) assays. Paclitaxel, a well-known tubulin inhibitor, was used as a positive control. […] Therefore, the inhibitory activity of the compounds depended not only on the 2-position substitution of acrylic acid, but also on the 3-position substitution of acrylic acid.
(§1) The anti-proliferative and cytotoxicity activity was determined using MTT assay. Human cervical carcinoma HeLa cells, human hepatocellular carcinoma HepG2 cells, human lung carcinoma A549 cells were representative in the anti-proliferation assay, which were obtained from the Shanghai Institute of Cell Biology (Shanghai, China). Normal African green monkey kidney Vero cells were a gift from Dr Xiumiao He at Guangxi University for Nationalities. Normal human hepatocytes LO2 cells were a gift from Dr Xing Lin at Guangxi Medical University. The HepG2, Hela, LO2 and Vero cells were cultured in Dulbecco's modified Eagle's medium (DMEM, Gibco) and the A549 cells were cultured in RPMI1640 (Gibco), both media were supplemented with 10% fetal calf serum and antibiotics (100 IU ml^−1 penicillin, 100 IU ml^−1 streptomycin; Amresco).
(§2) Cells were seeded in 96-well microtiter plates at a density of 1 × 10^4 cells well^−1 and incubated with different concentrations of compound (6.25, 12.50, 25.00, 50.00 to 100.00 µM), cisplatin and paclitaxel in RPMI-1640 or DMEM at 37°C with 5% CO2. After 24 h, cell morphology was observed using a light microscope, and then 20 µl of MTT solution (5 mg ml^−1) was added to the well and incubated for 4 h, then cell survival was determined by measuring the optical density (OD) absorbance at a wavelength of 570 nm using an ELISA microplate reader. The inhibition rate (IR) following each compound treatment was determined by the following equation: IR (%) = (1 − ODexp/ODcon) × 100%, where ODexp and ODcon are the OD of the treated and untreated cells, respectively. Cisplatin and paclitaxel were used as positive control drugs.

HeLa cells = experiment: MTT anti-proliferation assay, HeLa; conditions: 24 h, average of three determinations
Procedure: The 22 synthesized resveratrol compounds were evaluated for anti-proliferative activities against three human cancer cell lines, including HepG2, A549 and HeLa cells, using 3-[4,5-dimethylthiazol-2-yl]-2,5 diphenyl tetrazolium bromide (MTT) assays. Paclitaxel, a well-known tubulin inhibitor, was used as a positive control.
as §1
After 24 h, cell morphology was observed using a light microscope, and then 20 µl of MTT solution (5 mg ml^−1) was added to the well and incubated for 4 h, then cell survival was determined by measuring the optical density (OD) absorbance at a wavelength of 570 nm using an ELISA microplate reader. […] Cisplatin and paclitaxel were used as positive control drugs.

HepG2 cells [2] = experiment: Morphologic observation by light microscope; conditions: HepG2, 15 and 45 µM, 24 h
Procedure: Morphological observations can directly reflect the effects of drugs on cells. HepG2 cells were cultured with increasing concentrations of compound r (0, 5, 15 and 45 µM) for 24 h and observed using a light microscope. The cell morphology was clearly altered with the increase in drug concentration (figure 2).
Figure 2. Effect of compound r on the microscopic examination of HepG2 cells. Morphology of HepG2 treated with compound r (0, 5, 15 and 45 µM) and cisplatin (20 µM) for 24 h. Light microscopy photographs, with 40× objective.
as §2

β-tubulin in HepG2 cells = experiment: Immunofluorescence microscopy assay of β-tubulin; conditions: 24 h
Procedure: Resveratrol was previously reported to hamper microtubule function. To examine whether the anti-proliferative activity of compound r, a resveratrol derivative, was related to an interaction with tubulin, we examined β-tubulin in HepG2 cells treated with compound r and by immunofluorescence assay. Compound r ranging from 5 to 45 µM inhibited β-tubulin for 24 h (figure 3). […] In addition, after incubation with compound r (5, 15 and 45 µM), many cells became multinucleated. These phenomena were consistent with those observed with other microtubule-targeted drugs.
Figure 3. Compound r promoted microtubule depolymerization in HepG2 cells. The HepG2 cells were treated with 0, 5, 15 or 45 µM compound r for 24 h, microtubule networks and nuclei were observed by immunofluorescence microscopy assay.
HepG2 cells were cultured in DMEM supplemented with 10% fetal bovine serum on coverslips in 6-well plates and allowed to adhere for at least 12 h. Cells were then incubated in the presence or absence of compound r (0, 5, 15, 45 µM) for 24 h. Control cells were incubated with vehicle alone. […] Cell nuclei were stained with 4,6-diamidino-2-phenylindole (DAPI) and then images were obtained with a fluorescence microscope equipped with a motorized image capture system. […]

HepG2 cells [3] = experiment: Cell cycle assay by flow cytometry; conditions: 24 h, mean ± s.d.
Procedure: To evaluate the effects of compound r on cell cycle progression of HepG2, cells were treated with compound r at different concentrations (0, 5, 15 and 45 µM) for 24 h and then examined by flow cytometry. The accumulation of cells in S phase increased with increasing concentration of compound r. Approximately 18.36 ± 1.93%, 19.39 ± 2.06%, 29.9 ± 0.87% and 34.24 ± 1.00% of cells were arrested in S phase in response to 0, 5, 15 and 45 µM compound r, respectively. In comparison, 39.56 ± 0.97% cells were arrested in S phase after treatment with 20 µM cisplatin for 24 h.
Figure 5. Cells treated with 0, 5, 15 and 45 µM compound r for 24 h were collected and analysed by flow cytometry. Images were representative of three independent experiments. Values represented the mean ± s.d.; versus blank, *p < 0.01, **p < 0.001; versus control ^#p < 0.01, ^##p < 0.001.
Cells were treated with compound r (0, 5, 15, 45 µM) or 20 µM of cisplatin as the control for 24 h. Cells were collected by centrifugation (1000 rpm, 5 min), washed with PBS and fixed with 70% ice-cold ethanol overnight at 4°C. The cell cycle was examined on a flow cytometer using a cell cycle analysis kit (Beyotime Biotechnologyin, China) in accordance with the manufacturer's instructions.

`COc1ccc(C(=Cc2cc(C(F)(F)F)ccc2Cl)C(=O)O)cc1` [compound r, 3-(2-chloro-5-(trifluoromethyl)phenyl)-2-(4-methoxyphenyl) acrylic acid] gave an IC50 (HepG2 cells [1]; 24 h) of 7 ± 1 µM, an IC50 (HepG2 cells [1]; Homo sapiens, HepG2, 24 h) of 7.49 µM and an IC50 (HeLa cells) of 4.8 ± 0.8 µM. The IC50 (HeLa cells; Homo sapiens, HeLa) was 4.79 µM, the cell morphology (HepG2 cells [2]) was “shrinkage, rounding and detachment from the plate surface” and the “microtubule network / cytoskeleton appearance” value (β-tubulin in HepG2 cells; HepG2, 45 µM) was “microtubules appeared depolymerized”. The “microtubule network / cytoskeleton appearance” value (β-tubulin in HepG2 cells; HepG2, 5 and 15 µM) was “highly abnormal cytoskeleton”, the “cells arrested in S phase” value (HepG2 cells [3]; HepG2, 5 µM) was ~19.39 ± 2.06% and the “cells arrested in S phase” value (HepG2 cells [3]; HepG2, 15 µM) was ~29.9 ± 0.87%. For the same compound, the “cells arrested in S phase” value (HepG2 cells [3]; HepG2, 45 µM) was ~34.24 ± 1.00%.
